{
  "source": "patent US9121026B2",
  "about": "(priority 2004, dated 2015)",
  "type_in_all_cases": "cell-based, Saccharomyces cerevisiae",
  "key": {"[1]": {"system": "RE700A Δpdr1,3 tok1::PPDR5long-HXT7", "assay": "Growth of RE700A Δpdr1,3 tok1::PPDR5long-HXT7 in the presence of 2-DG", "method": "(B) Relative growth of RE700A tok1::PPDR5long-HXT7, RE700A Δpdr1 tok1::PPDR5long-HXT7, RE700A Δpdr3 tok1::PPDR5long-HXT7 and RE700A Δpdr1,3 tok1::PPDR5long-HXT7 in the presence of 2-DG. Cells were incubated for 20 h at 28° C. with 2-DG at different concentrations. […] The standard error of the mean (n=5) is indicated."}, "[2]": {"system": "RE700A e PPDR5-HXT7 (ET[PDR])", "assay": "Growth inhibition of ET[PDR] by 2-DG", "conditions": "20 h 28° C., maltose, in percent of growth of RE700A", "method": "(A) RE700A, ECFP and ET[PDR] were incubated 20 h at 28° C. with maltose (2% (w/v)) as the sole carbon source in the presence of the indicated 2-DG concentrations. The optical density was measured at 600 nm every 15 minutes and the integral under the growth curve was calculated. Inhibition of growth of ECFP and ET[PDR] is shown in percent of growth of RE700A. Growth of ECFP was inhibited by 39% at 0.005% (w/v) 2-DG, by 78% at 0.01% (w/v) 2-DG, by 91% at 0.03% (w/v) 2-DG and by 93% at 0.05% (w/v) 2-DG. Growth of ET[PDR] was inhibited by 52% at 0.005% (w/v) 2-DG, by 87% at 0.01% (w/v) 2-DG, by 94% at 0.03% (w/v) 2-DG and by 96% at 0.05% (w/v) 2-DG.\n(§1) Strain growth: The growth of the strains in liquid medium was determined by measuring the optical density at 600 nm. To obtain growth curves, measurements were performed every 15 min. Alternatively, start and endpoint (after 12-16 h) measurements were carried out."}, "[3]": {"system": "RE700A e PCDR2-HXT7 (ET[CDR2])", "assay": "Growth inhibition of ET[CDR2] by 2-DG", "conditions": "liquid media, 20 h 28° C., compared to growth in the absence of 2-DG", "method": "FIG. 6: Growth inhibition of RE700A, ET[CDR1] and ET[CDR2] in the presence of increasing 2-DG concentrations after 20 h incubation at 28° C. for in liquid medium. RE700A, ET[CDR1] and ET[CDR2] were incubated 20 h at 28° C. with maltose (2% (w/v)) as the sole carbon source in the presence of increasing 2-DG concentrations in liquid medium. The optical density was measured at 600 nm semi-continuously every 15 minutes and the integral under the growth curve was calculated. Inhibition of growth is shown in percent compared to growth in the absence of 2-DG. Growth of ET[CDR1] was inhibited by 92% at a 2-DG concentration in liquid media of 0.05% (w/v), by 94% at a 2-DG concentration in liquid media of 0.075% (w/v), by 93% at a 2-DG concentration in liquid media of 0.1% (w/v) and by 95% at a 2-DG concentration of 0.2% (w/v). Growth of ET[CDR2] was inhibited by 50% at a 2-DG concentration in liquid media of 0.05% (w/v), by 70% at a 2-DG concentration in liquid media of 0.075% (w/v), by 70% at a 2-DG concentration in liquid media of 0.1% (w/v) and by 84% at a 2-DG concentration of 0.2% (w/v).\n(2) Episomal screening system for inhibitors of PCDR2: S. cerevisiae strain RE700A was transformed with plasmids pY-PCDR2-HXT7 and pY-PCDR2-GFP yielding strains ET[CDR2] and CQ[CDR2] (for details see construction of strains and plasmids, for the complete genotype refer to Table 1). The inhibition of growth of ET[CDR2] by 2-DG was tested. The growth of this strain was inhibited to more than 80% at a 2-DG concentration of 0.2% (w/v) (FIG. 6). To screen for inhibitors of the PCDR2, the test strain ET[CDR2] can be incubated in selective YNB medium with 2% (w/v) maltose as the carbon source and 0.2% (w/v) 2-DG. Under these non-permissive conditions the growth of the test strain ET[CDR2] was inhibited when PCDR2 was active (FIG. 6)."}, "[4]": {"system": "S. cerevisiae strain RE700A", "assay": "Growth inhibition of RE700A by 2-DG in liquid maltose medium (OD600, integral under growth curve)", "method": "FIG. 1: Growth inhibition of S. cerevisiae strain RE700A at increasing 2-deoxy-glucose (2-DG) concentrations after incubation at 280 C for 20 h. RE700A was incubated for 20 h at 28° C. with maltose (2% (w/v)) as the sole carbon source and 2-DG at the concentrations indicated. The optical density was measured at 600 nm every 15 minutes and the integral under the growth curve was calculated. Inhibition of growth is shown in percent of growth of RE700A in the absence of 2-DG. The strain grew well in the presence of up to 0.5% (w/v) 2-DG.\nas §1\nThe screening system used Saccharomyces cerevisiae RE700A, a yeast strain deprived of the seven most important glucose transporters (HXT1-7) (Reifenberger, E. et al., Molecular Microbiology 16:157-167 (1995)). The strain is not able to grow on glucose as the sole carbon source. It grows on maltose (2% (w/v)) as the sole carbon source. In addition, the strain grows well on maltose also in the presence of up to 0.5% (w/v) 2-deoxy-glucose (2-DG), a toxic glucose analogue, in the medium (FIG. 1). Growth is inhibited by 50% at a 2-DG concentration in liquid media of ˜1% (w/v) (FIG. 1)."}},
  "data": [
    {"smiles": "O=CC[C@@H](O)[C@H](O)[C@H](O)CO", "note": "[2-DG, 2-deoxy-glucose]", "values": [
      {"measurement": "Sensitivity to 2-DG compared with the other PPDR5long-HXT7 strains", "setting": "[1]; RE700A Δpdr1,3 tok1::PPDR5long-HXT7, 20 h 28° C., n=5", "result": "far less sensitive"},
      {"measurement": "2-DG concentration for 50% growth inhibition", "setting": "[1]; RE700A Δpdr1,3 tok1::PPDR5long-HXT7, liquid media, 20 h 28° C.", "result": "0.6 % (w/v)"},
      {"measurement": "Increase of tolerance to 2-DG", "setting": "[1]; RE700A Δpdr1,3 tok1::PPDR5long-HXT7 versus RE700A Δpdr1 tok1::PPDR5long-HXT7", "result": "~10", "unit": "fold"},
      {"measurement": "Inhibition of growth", "setting": "[2]; 0.005% (w/v) 2-DG", "result": 52, "unit": "%"},
      {"measurement": "Inhibition of growth", "setting": "[2]; 0.01% (w/v) 2-DG", "result": 87, "unit": "%"},
      {"measurement": "Inhibition of growth", "setting": "[2]; 0.03% (w/v) 2-DG", "result": 94, "unit": "%"},
      {"measurement": "Inhibition of growth", "setting": "[2]; 0.05% (w/v) 2-DG", "result": 96, "unit": "%"},
      {"measurement": "Inhibition of growth", "setting": "[3]; 0.05% (w/v) 2-DG", "result": 50, "unit": "%"},
      {"measurement": "Inhibition of growth", "setting": "[3]; 0.075% (w/v) 2-DG", "result": 70, "unit": "%"},
      {"measurement": "Inhibition of growth", "setting": "[3]; 0.1% (w/v) 2-DG", "result": 70, "unit": "%"},
      {"measurement": "2-DG concentration at which growth is inhibited by 50%", "setting": "[4]; liquid media, maltose", "result": "~1 % (w/v)"},
      {"measurement": "2-DG concentration up to which the strain grows well", "setting": "[4]; maltose 2% (w/v) sole carbon source, 20 h, 28° C.", "result": "up to 0.5 % (w/v)"}
    ]}
  ]
}
